Assay results as given in US20240299376A1, “METHOD OF TREATING A CONDITION USING A […] EFFECTIVE DOSE OF 1-(1-OXO-1,2-DIHYDROISOQUINOLIN-5-YL)-5-(TRIFLUOROMETHYL)-N-(2-(TRIFLUOROMETHYL)PYRIDIN-4-YL)-1H-PYRAZOLE-4-CARBOXAMIDE” (Janssen Pharmaceutica NV, priority 2021, published 2024).
Read-outs that look alike come from different tables or passages of the source.

What was measured:
[1] = FIH study 67856633LYM1001 plasma pharmacokinetics; assay type: in vivo, human; details: human, plasma
Source text: The study consists of a dose escalation phase (Part 1), to determine the recommended Phase 2 dose(s) (RP2D[s]), followed by an expansion phase at the RP2D(s) (Part 2). The dose escalation phase is supported using an adaptive dose escalation strategy guided by the modified continual reassessment method (mCRM) based on a Bayesian Logistic Regression Model (BLRM) with escalation with overdose control (EWOC) principle. The mCRM design allows the use of all cumulative dose-limiting toxicities (DLT) data up to the current dose cohort.
In Part 1, subjects were enrolled in cohorts of daily oral doses at 50 mg, 100 mg, 200 mg (1×200 mg or 4×50 mg), 300 mg (3×100 mg or 6×50 mg), 400 mg (2×200 mg or 8×50 mg), and 600 mg (3×200 mg), and loading dosing cohorts—400 mg loading dose once daily for 14 days, followed by 300 mg once daily, and 300 mg loading dose twice daily for 7 days followed by 300 mg once daily. In Part 2, subjects received daily oral doses of 300 mg.
In Part 1, PK data were available in subjects receiving doses of 50 mg (1×50 mg), 100 mg (2×50 mg), 200 mg (4×50 mg or 1×200 mg), 300 mg (6×50 mg or 3×100 mg), 400 mg (8×50 mg or 2×200 mg), and 600 mg (3×200 mg). Pharmacokinetic data were also available from the loading dose regimens of 400 mg (8×50 mg) loading dose once daily for 14 days followed by 300 mg (6×50 mg) once daily, and 300 mg (6×50 mg) loading dose twice daily for 7 days followed by 300 mg (6×50 mg) once daily.

[2] = Pharmacokinetic modeling and simulations to predict the human dose; details: corresponds to mouse trough at 10 mg/kg BID after accounting for protein binding difference mice/human
Protocol: According to the tested scenario, the minimum predicted efficacious dose is approximately 110 mg given once daily.
The pharmacokinetic modeling was used based on available non-clinical pharmacokinetic data and allometric scaling. In addition, modeling using GastroPlus and SimCYP was also used to guide PK parameter prediction.

## O=C(Nc1ccnc(C(F)(F)F)c1)c1cnn(-c2cccc3c(=O)[nH]ccc23)c1C(F)(F)F [Compound A, 1-(1-oxo-1,2-dihydroisoquinolin-5-yl)-5-(trifluoromethyl)-N-[2-(trifluoromethyl)pyridin-4-yl]-1H-pyrazole-4-carboxamide]
[1]; oral, 100 mg, Cycle 2 Day 1, 50 mg capsule, cohort 2 × 50 mg, median, read-out: Tmax
  Tmax: 2 h
[1]; oral, 200 mg, Cycle 1 Day 1, 50 mg capsule, cohort 4 × 50 mg, Subject 100032 excluded, mean, read-out: AUCτ
  AUC: 118 µg·h/mL
[1]; oral, 200 mg, Cycle 1 Day 1, 50 mg capsule, cohort 4 × 50 mg, Subject 100032 excluded, mean, read-out: Cmax
  Cmax: 6750 ng/mL
[1]; oral, 200 mg, Cycle 1 Day 1, 50 mg capsule, cohort 4 × 50 mg, Subject 100032 excluded, median, read-out: Tmax
  Tmax: 4 h
[1]; oral, 200 mg, Cycle 1 Day 1, 200 mg capsule, cohort 200 mg, mean, read-out: AUCτ
  AUC: 61.9 µg·h/mL
[1]; oral, 200 mg, Cycle 1 Day 1, 200 mg capsule, cohort 200 mg, mean, read-out: Cmax
  Cmax: 4060 ng/mL
[1]; oral, 200 mg, Cycle 1 Day 1, 200 mg capsule, cohort 200 mg, median, read-out: Tmax
  Tmax: 4 h
[1]; oral, 200 mg, Cycle 1 Day 1, cohort 4 × 50 mg, with Subject 100032 data included, read-out: mean AUC
  AUC: 139 µg·h/mL
[1]; oral, 200 mg, Cycle 1 Day 1, cohort 4 × 50 mg, with Subject 100032 data included, read-out: mean Cmax
  Cmax: 8060 ng/mL
[1]; oral, 200 mg, Cycle 2 Day 1, 50 mg capsule, cohort 4 × 50 mg, Subject 100032 excluded, mean, read-out: AUCτ
  AUC: 882 µg·h/mL
[1]; oral, 200 mg, Cycle 2 Day 1, 50 mg capsule, cohort 4 × 50 mg, Subject 100032 excluded, mean, read-out: Cmax
  Cmax: 44800 ng/mL
[1]; oral, 200 mg, Cycle 2 Day 1, 50 mg capsule, cohort 4 × 50 mg, Subject 100032 excluded, median, read-out: Tmax
  Tmax: 2 h
[1]; oral, 200 mg, Cycle 2 Day 1, 200 mg capsule, cohort 200 mg, individual values, N = 2, read-out: Cmax
  Cmax: 25700 ng/mL
[1]; oral, 200 mg, Cycle 2 Day 1, 200 mg capsule, cohort 200 mg, read-out: AUCτ
  AUC: 453 µg·h/mL
[1]; oral, 200 mg, Cycle 2 Day 1, cohort 4 × 50 mg, with Subject 100032 data included, read-out: mean AUC
  AUC: 1140 µg·h/mL
[1]; oral, 200 mg, Cycle 2 Day 1, cohort 4 × 50 mg, with Subject 100032 data included, read-out: mean Cmax
  Cmax: 58200 ng/mL
[1]; oral, 300 mg, Cycle 1 Day 1, 50 mg capsule, cohort 6 × 50 mg (300 mg QD), mean, n = 9, read-out: AUCτ
  AUC: ~152 µg·h/mL
[1]; oral, 300 mg, Cycle 1 Day 1, 50 mg capsule, cohort 6 × 50 mg (300 mg QD), mean, read-out: Cmax
  Cmax: ~8810 ng/mL
[1]; oral, 300 mg, Cycle 1 Day 1, 50 mg capsule, cohort 6 × 50 mg (300 mg QD), median, read-out: Tmax
  Tmax: ~4 h
[1]; oral, 300 mg, Cycle 1 Day 1, cohort 6 × 50 mg BID > QD (300 mg BID 7 days then 300 mg QD), mean, read-out: Cmax
  Cmax: 4310 ng/mL
[1]; oral, 300 mg, Cycle 1 Day 1, cohort 6 × 50 mg BID > QD (300 mg BID 7 days then 300 mg QD), median, read-out: Tmax
  Tmax: ~6 h
[1]; oral, 300 mg, Cycle 2 Day 1, 50 mg capsule, cohort 6 × 50 mg (300 mg QD), mean, read-out: AUCτ
  AUC: ~1140 µg·h/mL
[1]; oral, 300 mg, Cycle 2 Day 1, 50 mg capsule, cohort 6 × 50 mg (300 mg QD), mean, read-out: Cmax
  Cmax: ~55200 ng/mL
[1]; oral, 300 mg, Cycle 2 Day 1, 50 mg capsule, cohort 6 × 50 mg (300 mg QD), median, read-out: Tmax
  Tmax: ~4 h
[1]; oral, 300 mg, Cycle 2 Day 1, cohort 6 × 50 mg BID > QD, individual values, N = 2, read-out: Tmax
  Tmax: ~3 h
[1]; oral, 400 mg, Cycle 1 Day 1, 50 mg capsule, cohort 8 × 50 mg, mean, read-out: AUCτ
  AUC: 131 µg·h/mL
[1]; oral, 400 mg, Cycle 1 Day 1, 50 mg capsule, cohort 8 × 50 mg, mean, read-out: Cmax
  Cmax: 7560 ng/mL
[1]; oral, 400 mg, Cycle 1 Day 1, 50 mg capsule, cohort 8 × 50 mg, median, read-out: Tmax
  Tmax: 3 h
[1]; oral, 400 mg, Cycle 1 Day 1, 200 mg capsule, cohort 2 × 200 mg food adlib, mean, read-out: AUCτ
  AUC: 112 µg·h/mL
[1]; oral, 400 mg, Cycle 1 Day 1, 200 mg capsule, cohort 2 × 200 mg food adlib, mean, read-out: Cmax
  Cmax: 6830 ng/mL
[1]; oral, 400 mg, Cycle 1 Day 1, 200 mg capsule, cohort 2 × 200 mg food adlib, median, read-out: Tmax
  Tmax: 4.5 h
[1]; oral, 400 mg, Cycle 1 Day 1, 200 mg capsule, cohort 2 × 200 mg, mean, read-out: AUCτ
  AUC: 68 µg·h/mL
[1]; oral, 400 mg, Cycle 1 Day 1, 200 mg capsule, cohort 2 × 200 mg, mean, read-out: Cmax
  Cmax: 4190 ng/mL
[1]; oral, 400 mg, Cycle 1 Day 1, 200 mg capsule, cohort 2 × 200 mg, median, read-out: Tmax
  Tmax: 5 h
[1]; oral, 400 mg, Cycle 1 Day 1, cohort 8 × 50 mg > 6 × 50 mg (400 mg QD loading 14 days then 300 mg QD), Subject 100070 excluded, mean, read-out: AUCτ
  AUC: 186 µg·h/mL
[1]; oral, 400 mg, Cycle 1 Day 1, cohort 8 × 50 mg > 6 × 50 mg (400 mg QD loading 14 days then 300 mg QD), Subject 100070 excluded, mean, read-out: Cmax
  Cmax: 10300 ng/mL
[1]; oral, 400 mg, Cycle 1 Day 1, cohort 8 × 50 mg > 6 × 50 mg (400 mg QD loading 14 days then 300 mg QD), median, read-out: Tmax
  Tmax: 3 h
[1]; oral, 400 mg, Cycle 1 Day 1, cohort 8 × 50 mg > 6 × 50 mg, with Subject 100070 data included, read-out: mean AUC
  AUC: 237 µg·h/mL
[1]; oral, 400 mg, Cycle 1 Day 1, cohort 8 × 50 mg > 6 × 50 mg, with Subject 100070 data included, read-out: mean Cmax
  Cmax: 12800 ng/mL
[1]; oral, 400 mg, Cycle 2 Day 1, 50 mg capsule, cohort 8 × 50 mg, mean, read-out: AUCτ
  AUC: 1590 µg·h/mL
[1]; oral, 400 mg, Cycle 2 Day 1, 50 mg capsule, cohort 8 × 50 mg, mean, read-out: Cmax
  Cmax: 94100 ng/mL
[1]; oral, 400 mg, Cycle 2 Day 1, 50 mg capsule, cohort 8 × 50 mg, median, read-out: Tmax
  Tmax: 3.5 h
[1]; oral, 400 mg, Cycle 2 Day 1, 200 mg capsule, cohort 2 × 200 mg food adlib, mean, read-out: AUCτ
  AUC: 1330 µg·h/mL
[1]; oral, 400 mg, Cycle 2 Day 1, 200 mg capsule, cohort 2 × 200 mg food adlib, mean, read-out: Cmax
  Cmax: 72300 ng/mL
[1]; oral, 400 mg, Cycle 2 Day 1, 200 mg capsule, cohort 2 × 200 mg food adlib, median, read-out: Tmax
  Tmax: 8 h
[1]; oral, 400 mg, Cycle 2 Day 1, 200 mg capsule, cohort 2 × 200 mg, mean, read-out: AUCτ
  AUC: 824 µg·h/mL
[1]; oral, 400 mg, Cycle 2 Day 1, 200 mg capsule, cohort 2 × 200 mg, mean, read-out: Cmax
  Cmax: 43200 ng/mL
[1]; oral, 400 mg, Cycle 2 Day 1, 200 mg capsule, cohort 2 × 200 mg, median, read-out: Tmax
  Tmax: 3 h
[1]; oral, 600 mg, Cycle 1 Day 1, 200 mg capsule, cohort 3 × 200 mg, individual values, N = 2, read-out: AUCτ
  AUC: 123 µg·h/mL
[1]; oral, 600 mg, Cycle 1 Day 1, 200 mg capsule, cohort 3 × 200 mg, individual values, N = 2, read-out: Cmax
  Cmax: 7790 ng/mL
[1]; oral, 600 mg, Cycle 1 Day 1, 200 mg capsule, cohort 3 × 200 mg, individual values, N = 2, read-out: Tmax
  Tmax: 3 h
[1]; oral, Cycle 2 Day 1, cohort 8 × 50 mg > 6 × 50 mg (400 mg QD loading 14 days then 300 mg QD), Subject 100070 excluded, mean, read-out: Cmax
  Cmax: 72200 ng/mL
[1]; oral, Cycle 2 Day 1, cohort 8 × 50 mg > 6 × 50 mg, Subject 100070 excluded, mean, read-out: AUCτ
  AUC: 1700 µg·h/mL
[1]; oral, Cycle 2 Day 1, cohort 8 × 50 mg > 6 × 50 mg, Subject 100070 excluded, median, read-out: Tmax
  Tmax: 3 h
[1]; oral, Cycle 2 Day 1, cohort 8 × 50 mg > 6 × 50 mg, with Subject 100070 data included, read-out: mean AUC
  AUC: 1810 µg·h/mL
[1]; oral, Cycle 2 Day 1, cohort 8 × 50 mg > 6 × 50 mg, with Subject 100070 data included, read-out: mean Cmax
  Cmax: 79700 ng/mL
[1]; po, 50 mg, Cycle 2 Day 1, 50 mg capsule, oral daily administration, read-out: median Tmax
  Tmax: 2 to 4 h
[1]; po, 200 mg, Cycle 2 Day 1, 200 mg capsule, oral daily administration, read-out: median Tmax
  Tmax: 3 to 8 h
[1]; po, first oral dose at Cycle 1 Day 1, doses of 50 to 600 mg, read-out: median Tmax
  Tmax: 3 to 6 h
[2]
  Ctrough at steady state targeted in humans: 4640 ng/mL
